In patent publication US9951065B2 (Gilead Sciences, Inc., priority 2015, dated 2018):

target: T1, IDO1 (Homo sapiens, UniProt P14902); experiment: Cell-based (HeLa) assay for measurement of IDO1 inhibition (kynurenine levels in supernatant after IFNγ induction); details: HeLa cells, IFNγ-induced IDO1, kynurenine in supernatant after 48 hour incubation; geometric mean of a minimum of four determinations
T1 construct: HeLa cells were treated with a test compound in the presence of IFNγ, which induces IDO1 expression; host or cells: H1-HeLa cells, IDO1 induced with IFNγ
T1 sequence (P14902 whole entry): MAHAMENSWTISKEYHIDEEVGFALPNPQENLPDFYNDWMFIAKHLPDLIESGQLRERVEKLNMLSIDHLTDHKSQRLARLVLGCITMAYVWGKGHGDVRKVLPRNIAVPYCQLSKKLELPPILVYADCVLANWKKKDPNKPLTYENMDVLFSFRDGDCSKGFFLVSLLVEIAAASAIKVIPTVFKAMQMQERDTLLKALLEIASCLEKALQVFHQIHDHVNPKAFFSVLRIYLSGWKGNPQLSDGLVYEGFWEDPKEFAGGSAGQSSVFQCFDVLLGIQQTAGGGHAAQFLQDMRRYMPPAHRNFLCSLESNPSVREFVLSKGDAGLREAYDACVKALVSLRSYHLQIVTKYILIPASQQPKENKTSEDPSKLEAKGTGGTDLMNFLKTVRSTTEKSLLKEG
Description: Example 509. Cell-Based (HeLa) Assay for Measurement of IDOL Inhibition
To measure IDO1 inhibition in tissue culture, HeLa cells were treated with a test compound in the presence of IFNγ, which induces IDO1 expression. Following incubation, cell supernatants were assayed for kynurenine levels, an indicator of IDO1 activity.
H1-HeLa cells (ATCC #CRL-1958) were seeded in 384-well plates (Greiner #82051-282) at a volume of 50 μL/well in DMEM (Corning #15-018-CM) supplemented with 10% FBS (Corning #35-011-CV) and 1% P/S/G (Corning #30-009-CL) at a density of 1,250 cells/well and incubated overnight at 37° C., 5% CO2/100% humidity. The following day, the test compounds were added in DMSO (0.5% final) at various concentrations, and IDO1 was inducibly expressed by the addition of 50 uL/well of […] of INFγ (Peprotech #300-02) in cell plating media. As a […] control, 50 uL of the cell plating media without IFNγ was added to several wells. Following a 48 hour incubation, the plates were spun down at 1,200 RPM for 5 min at 10° C. 65 μL/well of the supernatant was then transferred to new 384-well plates (Thermo #262160) that contained 10 uL/well of 30% TCA (Sigma #TO699), and the plates were sealed and incubated at 60° C. for 30 min. The plates were then centrifuged for 15 min at 2,000 RPM at 10° C. 40 μL/well of the supernatant was transferred to new 384-well plates (Thermo #262160) and was reacted with 40 μL/well of 2% (w/v) p-dimethlyaminobenzaldehyde (Sigma #156417) in glacial acetic acid (Sigma #A6283). The reaction was incubated at room temperature for 10 min and absorbance at 480 nm was read using a PerkinElmer Envision plate reader.
Data in Table 1 were normalized based on positive (−IFNγ) and negative (+IFNγ) controls and EC50 values were calculated from the fit of the dose response curves to a four-parameter equation. All EC50 values represent geometric mean values of a minimum of four determinations. These assays generally produced results within 2-fold of the reported mean.

EC50 | SMILES
0.562 µM | CN(C)CCc1nc2c(/C(=N/O)Nc3cccc(Cl)c3)cc(F)c(F)c2[nH]1 [Example 56, N-(3-Chlorophenyl)-2-(2-(dimethylamino)ethyl)-6,7-difluoro-N′-hydroxy-1H-benzo[d]imidazole-4-carboximidamide]
3.19 µM | CCc1nc2nccc(/C(=N/O)Nc3ccc(F)c(Cl)c3)c2[nH]1 [Example 108, N-(3-Chloro-4-fluorophenyl)-2-ethyl-N′-hydroxy-1H-imidazo[4,5-b]pyridine-7-carboximidamide]
2.91 µM | CCN(CC)CCNc1nc2nccc(/C(=N/O)Nc3ccc(F)c(Cl)c3)c2[nH]1 [Example 167, N-(3-Chloro-4-fluorophenyl)-2-((2-(diethylamino)ethyl)amino)-N′-hydroxy-1H-imidazo[4,5-b]pyridine-7-carboximidamide]
2.14 µM | O/N=C(\Nc1ccc(F)c(Cl)c1)c1ccnc2nc(NC3CCOCC3)[nH]c12 [Example 228, N-(3-chloro-4-fluorophenyl)-N′-hydroxy-2-((tetrahydro-2H-pyran-4-yl)amino)-1H-imidazo[4,5-b]pyridine-7-carboximidamide]
0.564 µM | O/N=C(\Nc1ccc(F)c(Cl)c1)c1ccc(F)c2nc(NCCCN3CCOCC3)[nH]c12 [Example 200, N-(3-Chloro-4-fluorophenyl)-7-fluoro-N′-hydroxy-2-(3-morpholin-4-ylpropylamino)-3H-benzimidazole-4-carboximidamide]
0.803 µM | CCc1cccc(N/C(=N\O)c2ccnc3nc[nH]c23)c1 [Example 96, N-(3-Ethylphenyl)-N′-hydroxy-1H-imidazo[4,5-b]pyridine-7-carboximidamide]
2.46 µM | O/N=C(\Nc1ccc(F)c(Cl)c1)c1ccc(OC(F)(F)F)c2nc[nH]c12 [Example 2, N-(3-Chloro-4-fluorophenyl)-N′-hydroxy-4-(trifluoromethoxy)-1H-benzo[d]imidazole-7-carboximidamide]
0.527 µM | O/N=C(\Nc1ccc(F)c(Cl)c1)c1cc(F)cc2nc[nH]c12 [Example 4, N-(3-Chloro-4-fluorophenyl)-5-fluoro-N′-hydroxy-1H-benzo[d]imidazole-7-carboximidamide]
1.12 µM | O/N=C(\Nc1ccc(F)c(Cl)c1)c1ccnc2nc(NCCN3CCC3)[nH]c12 [Example 233, 2-((2-(azetidin-1-yl)ethyl)amino)-N-(3-chloro-4-fluorophenyl)-N′-hydroxy-1H-imidazo[4,5-b]pyridine-7-carboximidamide]
1.94 µM | O/N=C(\Nc1ccc(F)c(C(F)(F)F)c1)c1ccnc2[nH]c(CCl)nc12 [Example 170, 2-(Chloromethyl)-N-(4-fluoro-3-(trifluoromethyl)phenyl)-N′-hydroxy-3H-imidazo[4,5-b]pyridine-7-carboximidamide]
5.46 µM | Cn1cnc2c(/C(=N/O)Nc3ccc(F)c(Cl)c3)ccnc21 [Example 197, N-(3-Chloro-4-fluorophenyl)-N′-hydroxy-3-methyl-3H-imidazo[4,5-b]pyridine-7-carboximidamide]
2.11 µM | O/N=C(\Nc1cc(F)cc(C(F)(F)F)c1)c1ccnc2nc[nH]c12 [Example 75, N-(3-Fluoro-5-(trifluoromethyl)phenyl)-N′-hydroxy-1H-imidazo[4,5-b]pyridine-7-carboximidamide]
0.774 µM | O/N=C(\Nc1cc(Cl)c(F)c(Cl)c1)c1ccnc2nc[nH]c12 [Example 63, N-(3,5-Dichloro-4-fluorophenyl)-N′-hydroxy-1H-imidazo[4,5-b]pyridine-7-carboximidamide]
0.404 µM | Nc1nc2c(F)ccc(/C(=N/O)Nc3cccc(Cl)c3)c2[nH]1 [Example 20, 2-Amino-N-(3-chlorophenyl)-4-fluoro-N′-hydroxy-1H-benzo[d]imidazole-7-carboximidamide]
0.457 µM | CCNCc1nc2c(/C(=N/O)Nc3ccc(F)c(Cl)c3)cc(F)c(F)c2[nH]1 [Example 50, N-(3-Chloro-4-fluorophenyl)-2-((ethylamino)methyl)-6,7-difluoro-N′-hydroxy-1H-benzo[d]imidazole-4-carboximidamide]
0.542 µM | O/N=C(\Nc1ccc(F)c(Cl)c1)c1ccc(F)c2nc[nH]c12 [Example 5, N-(3-Chloro-4-fluorophenyl)-4-fluoro-N′-hydroxy-1H-benzo[d]imidazole-7-carboximidamide]
> 10 µM | O/N=C(\Nc1ccc(F)c(Cl)c1)c1cc(F)c(F)c2nc(NC3CC(O)C3)[nH]c12 (centres unmarked) [Example 296, N-(3-chloro-4-fluorophenyl)-4,5-difluoro-N′-hydroxy-2-((3-hydroxycyclobutyl)amino)-1H-benzo[d]imidazole-7-carboximidamide]
0.634 µM | Cc1c(F)cc(/C(=N/O)Nc2ccc(F)c(Cl)c2)c2[nH]cnc12 [Example 9, N-(3-Chloro-4-fluorophenyl)-6-fluoro-N′-hydroxy-7-methyl-3H-benzimidazole-4-carboximidamide]
0.565 µM | CN(CCc1nc2nccc(/C(=N/O)Nc3ccc(F)c(Cl)c3)c2[nH]1)CC1CC1 [Example 186, N-(3-Chloro-4-fluorophenyl)-2-(2-((cyclopropylmethyl)(methyl)amino)ethyl)-N′-hydroxy-1H-imidazo[4,5-b]pyridine-7-carboximidamide]
2.4 µM | OCCc1nc2nccc(/C(=N/O)Nc3ccc(F)c(Cl)c3)c2[nH]1 [Example 183, N-(3-Chloro-4-fluorophenyl)-N′-hydroxy-2-(2-hydroxyethyl)-1H-imidazo[4,5-b]pyridine-7-carboximidamide]
0.675 µM | O/N=C(\Nc1ccc(F)c(Cl)c1)c1ccnc2nc(CCN3CCC(Cc4ccccc4)CC3)[nH]c12 [Example 275, 2-(2-(4-benzylpiperidin-1-yl)ethyl)-N-(3-chloro-4-fluorophenyl),N′-hydroxy-1H-imidazo[4,5-b]pyridine-7-carboximidamide]

same assay, conditions: HeLa cells, IFNγ-induced IDO1, kynurenine in supernatant, 48 hour incubation; geometric mean of a minimum of four determinations

EC50 | SMILES
2.54 µM | Cn1ccnc1CNc1nc2c(F)c(F)cc(/C(=N/O)Nc3ccc(F)c(Cl)c3)c2[nH]1 [Example 349, N-(3-chloro-4-fluorophenyl)-4,5-difluoro-N′-hydroxy-2-(((1-methyl-1H-imidazol-2-yl)methyl)amino)-1H-benzo[d]imidazole-7-carboximidamide]
2.12 µM | OCCN(CCNc1nc2nccc(/C(=N/O)Nc3ccc(F)c(Cl)c3)c2[nH]1)C1CC1 [Example 407, N-(3-chloro-4-fluorophenyl)-2-((2-(cyclopropyl(2-hydroxyethyl)amino)ethyl)amino)-N′-hydroxy-1H-imidazo[4,5-b]pyridine-7-carboximidamide]
1.26 µM | O/N=C(\Nc1ccc(F)c(Cl)c1)c1ccc(F)c2nc(NCCN3CCCC3)[nH]c12 [Example 376, N-(3-chloro-4-fluorophenyl)-4-fluoro-N′-hydroxy-2-((2-(pyrrolidin-1-yl)ethyl)amino)-1H-benzo[d]imidazole-7-carboximidamide]
3.57 µM | O/N=C(\Nc1ccc(F)c(Cl)c1)c1cc(F)c(F)c2nc(NCCn3cccn3)[nH]c12 [Example 300, 2-((2-(1H-pyrazol-1-yl)ethyl)amino)-N-(3-chloro-4-fluorophenyl)-4,5-difluoro-N′-hydroxy-1H-benzo[d]imidazole-7-carboximidamide]
6.12 µM | CC(=O)NCCNc1nc2c(F)c(F)cc(/C(=N/O)Nc3ccc(F)c(Cl)c3)c2[nH]1 [Example 334, N-(2-((7-(N-(3-chloro-4-fluorophenyl)-N′-hydroxycarbamimidoyl)-4,5-difluoro-1H-benzo[d]imidazol-2-yl)amino)ethyl)acetamide]
1.35 µM | CN1CCOCC1CNc1nc2c(F)c(F)cc(/C(=N/O)Nc3ccc(F)c(Cl)c3)c2[nH]1 (centres unmarked) [Example 429, N-(3-chloro-4-fluorophenyl)-4,5-difluoro-N′-hydroxy-2-(((4-methylmorpholin-3-yl)methyl)amino)-1H-benzo[d]imidazole-7-carboximidamide]
0.692 µM | CN(C)CCCNc1nc2c(F)c(F)cc(/C(=N/O)Nc3ccc(F)c(Br)c3)c2[nH]1 [Example 387, N-(3-bromo-4-fluorophenyl)-2-((3-(dimethylamino)propyl)amino)-4,5-difluoro-N′-hydroxy-1H-benzo[d]imidazole-7-carboximidamide]
3.49 µM | CN1CCCCC1Cc1nc2nccc(/C(=N/O)Nc3ccc(F)c(Cl)c3)c2[nH]1 (centres unmarked) [Example 305, N-(3-chloro-4-fluorophenyl)-N′-hydroxy-2-((1-methylpiperidin-2-yl)methyl)-1H-imidazo[4,5-b]pyridine-7-carboximidamide]
